Where two headings read alike, the source gives them in different places.
Experiments:
crabgrass = experiment: Example 1: pot test, foliar treatment, visually observed growth inhibition of crabgrass; type: in vivo
Source text: (§1) When the herbicidal activity in a case where two active ingredients are combined, is larger than the simple sum of the respective herbicidal activities of the two active ingredients (the expected activity), it is called a synergistic effect. The activity expected by the combination of two active ingredients can be calculated as follows (Colby S. R., “Weed”, vol. 15, p. 20-22, 1967). E=α+β−(α×β+100) where
(§2) α: growth inhibition rate when treated with x (g/ha) of herbicide X,
(§3) β: growth inhibition rate when treated with y (g/ha) of herbicide Y,
(§4) E: growth inhibition rate expected when treated with x (g/ha) of herbicide X and y (g/ha) of herbicide Y.
(§5) That is, when the actual growth inhibition rate (measured value) is larger than the growth inhibition rate by the above calculation (calculated value), the activity by the combination can be regarded as showing a synergistic effect.
(§6) Upland field soil was put into a 1/1,000,000 hectare pot, and seeds of various plants were sown. When the respective plants reached predetermined leaf stage, herbicidal compositions in predetermined amounts were diluted with water in an amount corresponding to 300 L/ha and applied for foliar treatment by a small sprayer.
(§7) Further, in accordance with the above Colby's formula, the growth inhibition rate (calculated value) was calculated. In Tables, with respect to the compound A, Compound Nos. in Table 1 or 3 are described, and with respect to other herbicidal compounds, common names are described.

velvetleaf = experiment: Example 1: pot test, foliar treatment, visually observed growth inhibition of velvetleaf; type: in vivo, Abutilon theophrasti MEDIC.
Source text: as §1, §2, §3, §4, §5, §6, §7

[1] = 3.2 to 4.3 leaf stage, 21st day after application, 125 g/ha
[2] = Abutilon theophrasti, foliar, 2.5 to 3.3 leaf stage, 21st day after application, read-out: Growth inhibition rate (%) of velvetleaf, Measured value
[3] = Abutilon theophrasti, foliar, 3.2 to 4.1 leaf stage, 21st day after application, read-out: Growth inhibition rate (%) of velvetleaf, Measured value
[4] = Digitaria sanguinalis, foliar, read-out: Growth inhibition rate (%) of crabgrass, Measured value

SMILES: CCOC(=O)COc1ccc(Cl)cc1Cl [2,4-D-ethyl]
- Growth inhibition rate (%) of crabgrass, Measured value (crabgrass; [1]): 0%
- Growth inhibition rate (%) of crabgrass, Measured value (crabgrass; 3.6 to 4.5 leaf stage, 14th day after application, 100 g/ha): 0%
- Growth inhibition rate (%) of crabgrass, Measured value (crabgrass; 3.6 to 4.5 leaf stage, 22nd day after application, 200 g/ha): 25%
- Growth inhibition rate (%) of velvetleaf, Measured value (velvetleaf; 2.4 to 3.2 leaf stage, 22nd day after application, 63 g/ha): 30%
- Growth inhibition rate (%) of velvetleaf, Measured value (velvetleaf; [1]): 50%

SMILES: CC(C)N1C(=O)c2ccccc2NS1(=O)=O [Bentazone-sodium]
- inhibition at 200 g/ha (crabgrass; Digitaria sanguinalis, foliar, 3.2 to 4.1 leaf stage, 21st day after application, 200 g/ha, read-out: Growth inhibition rate (%) of crabgrass, Measured value): 0%
- inhibition at 200 g/ha (crabgrass; Digitaria sanguinalis, foliar, 4.1 to 5.3 leaf stage, 14th day after application, 200 g/ha, read-out: Growth inhibition rate (%) of crabgrass, Measured value): 0%
- inhibition at 150 g/ha (velvetleaf; Abutilon theophrasti, foliar, 2.0 to 2.5 leaf stage, 21st day after application, 150 g/ha, read-out: Growth inhibition rate (%) of velvetleaf, Measured value): 95%
- inhibition at 100 g/ha (velvetleaf; Abutilon theophrasti, foliar, 3.0 to 4.0 leaf stage, 21st day after application, 100 g/ha, read-out: Growth inhibition rate (%) of velvetleaf, Measured value): 0%
- inhibition at 200 g/ha (velvetleaf; Abutilon theophrasti, foliar, 3.0 to 4.0 leaf stage, 21st day after application, 200 g/ha, read-out: Growth inhibition rate (%) of velvetleaf, Measured value): 20%

SMILES: N#Cc1cc(Br)c(O)c(Br)c1 [Bromoxynil, bromoxynil, reference compound]
- inhibition at 165 g/ha (crabgrass; Digitaria sanguinalis, foliar, 2.7 to 3.6 leaf stage, 21st day after application, read-out: Growth inhibition rate (%) of crabgrass, Measured value): 0%
- inhibition at 77 g/ha (crabgrass; Digitaria sanguinalis, foliar, 4.0 to 5.0 leaf stage, 21st day after application, 77 g/ha, read-out: Growth inhibition rate (%) of crabgrass, Measured value): 0%
- inhibition at 165 g/ha (crabgrass; Digitaria sanguinalis, foliar, 4.0 to 5.0 leaf stage, 21st day after application, read-out: Growth inhibition rate (%) of crabgrass, Measured value): 0%
- inhibition at 62.5 g/ha (velvetleaf; Abutilon theophrasti, foliar, 2.4 to 3.2 leaf stage, on the 22nd day after application, foliar, active ingredient amount 62.5 g/ha, read-out: Growth inhibition rate (%) of velvetleaf, Measured value): 35%
- inhibition at 77 g/ha (velvetleaf; [2]): 30%
- inhibition at 165 g/ha (velvetleaf; [2]): 40%
- inhibition at 77 g/ha (velvetleaf; [3]): 0%
- inhibition at 165 g/ha (velvetleaf; [3]): 30%
- inhibition at 165 g/ha (velvetleaf; Abutilon theophrasti, foliar, 4.0 to 4.4 leaf stage, 22nd day after application, read-out: Growth inhibition rate (%) of velvetleaf, Measured value): 50%

SMILES: CCCCCCCC(=O)Oc1c(Br)cc(C#N)cc1Br [Bromoxynil-octanoate]
- inhibition at 63 g/ha (crabgrass; Digitaria sanguinalis, foliar, 3.5 to 4.0 leaf stage, 21st day after application, 63 g/ha, read-out: Growth inhibition rate (%) of crabgrass, Measured value): 0%
- inhibition at 63 g/ha (velvetleaf; Abutilon theophrasti, foliar, 2.0 to 2.5 leaf stage, 21st day after application, 63 g/ha, read-out: Growth inhibition rate (%) of velvetleaf, Measured value): 25%
- inhibition at 50 g/ha (velvetleaf; Abutilon theophrasti, foliar, 3.0 to 3.8 leaf stage, 15th day after application, read-out: Growth inhibition rate (%) of velvetleaf, Measured value): 0%
- inhibition at 50 g/ha (velvetleaf; Abutilon theophrasti, foliar, 3.2 to 5.0 leaf stage, 14th day after application, read-out: Growth inhibition rate (%) of velvetleaf, Measured value): 20%
- inhibition at 50 g/ha (velvetleaf; Abutilon theophrasti, foliar, 3.2 to 5.0 leaf stage, 21st day after application, read-out: Growth inhibition rate (%) of velvetleaf, Measured value): 10%
- inhibition at 63 g/ha (velvetleaf; Abutilon theophrasti, foliar, 3.3 to 4.2 leaf stage, 22nd day after application, 63 g/ha, read-out: Growth inhibition rate (%) of velvetleaf, Measured value): 45%
- inhibition at 125 g/ha (velvetleaf; Abutilon theophrasti, foliar, 3.3 to 4.2 leaf stage, 22nd day after application, 125 g/ha, read-out: Growth inhibition rate (%) of velvetleaf, Measured value): 50%
- inhibition at 50 g/ha (velvetleaf; Abutilon theophrasti, foliar, 3.5 to 4.3 leaf stage, 21st day after application, read-out: Growth inhibition rate (%) of velvetleaf, Measured value): 0%

SMILES: CCOC(=O)C(Cl)Cc1cc(-n2nc(C)n(C(F)F)c2=O)c(F)cc1Cl (stereo not drawn) [Carfentrazone-ethyl]
- inhibition at 2.5 g/ha (crabgrass; [4]): 0%
- inhibition at 5 g/ha (crabgrass; [4]): 0%
- inhibition at 5 g/ha (velvetleaf; Abutilon theophrasti, foliar, read-out: Growth inhibition rate (%) of velvetleaf, Measured value, 2.0 to 2.5 leaf stage, 21st day after application): 98%
- inhibition at 2.5 g/ha (velvetleaf; Abutilon theophrasti, foliar, read-out: Growth inhibition rate (%) of velvetleaf, Measured value, 3.2 to 4.3 leaf stage, 21st day after application, 2.5 g/ha): 65%
- inhibition at 5 g/ha (velvetleaf; Abutilon theophrasti, foliar, read-out: Growth inhibition rate (%) of velvetleaf, Measured value, 3.3 to 4.3 leaf stage, 20th day after application): 80%

SMILES: NCCO.O=C(O)c1nc(Cl)ccc1Cl [Clopyralid-olamine]
- Growth inhibition rate (%) of crabgrass, Measured value (crabgrass; 3.0 to 4.3 leaf stage, 21st day after application, 100 g/ha): 0%
- Growth inhibition rate (%) of velvetleaf, Measured value (velvetleaf; 3.3 to 4.3 leaf stage, 20th day after application, 150 g/ha): 5%
- Growth inhibition rate (%) of velvetleaf, Measured value (velvetleaf; 3.3 to 4.3 leaf stage, 20th day after application, 300 g/ha): 10%
- Growth inhibition rate (%) of velvetleaf, Measured value (velvetleaf; 3.5 to 4.1 leaf stage, 14th day after application, 150 g/ha): 20%
- Growth inhibition rate (%) of velvetleaf, Measured value (velvetleaf; 3.5 to 4.1 leaf stage, 14th day after application, 300 g/ha): 20%

SMILES: COCC(C)N(C(=O)CCl)c1c(C)csc1C (stereo not drawn) [Dimethenamid]
- inhibition at 125 g/ha (velvetleaf; Abutilon theophrasti, foliar, 2.0 to 2.5 leaf stage, 21st day after application, 125 g/ha, read-out: Growth inhibition rate (%) of velvetleaf, Measured value): 0%

SMILES: COc1cc(OC)nc(NC(=O)NS(=O)(=O)c2cc(NC=O)ccc2C(=O)N(C)C)n1 [Foramsulfuron]
- inhibition at 15 g/ha (velvetleaf; Abutilon theophrasti, foliar, 2.0 to 2.8 leaf stage, 21st day after application, 15 g/ha, read-out: Growth inhibition rate (%) of velvetleaf, Measured value): 0%
- inhibition at 30 g/ha (velvetleaf; Abutilon theophrasti, foliar, 2.0 to 2.8 leaf stage, 21st day after application, 30 g/ha, read-out: Growth inhibition rate (%) of velvetleaf, Measured value): 25%

SMILES: CP(=O)(O)CCC(N)C(=O)O (stereo not drawn) [Glufosinate-ammonium]
- inhibition at 100 g/ha (velvetleaf; Abutilon theophrasti, foliar, read-out: Growth inhibition rate (%) of velvetleaf, Measured value, 3.3 to 4.3 leaf stage, 20th day after application, 100 g/ha): 0%
- inhibition at 200 g/ha (velvetleaf; Abutilon theophrasti, foliar, read-out: Growth inhibition rate (%) of velvetleaf, Measured value, 3.3 to 4.3 leaf stage, 20th day after application, 200 g/ha): 10%

SMILES: N.O=C(O)CNCP(=O)(O)O [Glyphosate-ammonium]
- Growth inhibition rate (%) of velvetleaf, Measured value (velvetleaf; 2.6 to 3.3 leaf stage, 20th day after application, 63 g/ha): 0%
- Growth inhibition rate (%) of velvetleaf, Measured value (velvetleaf; 3.0 to 4.0 leaf stage, 21st day after application, 200 g/ha): 0%
- Growth inhibition rate (%) of velvetleaf, Measured value (velvetleaf; 3.2 to 5.0 leaf stage, 14th day after application, 75 g/ha): 0%
- Growth inhibition rate (%) of velvetleaf, Measured value (velvetleaf; 3.5 to 4.1 leaf stage, 14th day after application, 100 g/ha): 25%
- Growth inhibition rate (%) of velvetleaf, Measured value (velvetleaf; 3.5 to 4.1 leaf stage, 14th day after application, 200 g/ha): 50%
- Growth inhibition rate (%) of velvetleaf, Measured value (velvetleaf; 3.5 to 4.1 leaf stage, 20th day after application, 75 g/ha): 0%
- Growth inhibition rate (%) of velvetleaf, Measured value (velvetleaf; 3.5 to 4.1 leaf stage, 20th day after application, 150 g/ha): 0%
- Growth inhibition rate (%) of velvetleaf, Measured value (velvetleaf; 3.5 to 4.3 leaf stage, 21st day after application, 75 g/ha): 0%

SMILES: O=C(O)CNCP(=O)([O-])O.[K+] [Glyphosate-potassium]
- Growth inhibition rate (%) of crabgrass, Measured value (crabgrass; 3.3 to 4.2 leaf stage, 28th day after application, 75 g/ha): 0%

SMILES: CSc1nnc(C(C)(C)C)c(=O)n1N [Metribuzin]
- inhibition at 125 g/ha (crabgrass; Digitaria sanguinalis, foliar, 3.2 to 4.2 leaf stage, 21st day after application, 125 g/ha, read-out: Growth inhibition rate (%) of crabgrass, Measured value): 15%
- inhibition at 250 g/ha (crabgrass; Digitaria sanguinalis, foliar, 3.2 to 4.2 leaf stage, 21st day after application, 250 g/ha, read-out: Growth inhibition rate (%) of crabgrass, Measured value): 20%

SMILES: CCSC(=O)Oc1c(C(=O)c2ccc(S(C)(=O)=O)c(C(=O)OC)c2C)cnn1C [No. 1, 5-(ethylthio)carbonyloxy-1-methylpyrazol-4-yl 3-(methoxycarbonyl)-2-methyl-4-(methylsulfonyl)phenyl ketone]
- inhibition at 15 g/ha (crabgrass; Digitaria sanguinalis, foliar, 3.2 to 4.3 leaf stage, on the 22nd day after application, foliar, active ingredient amount 15 g/ha, read-out: Growth inhibition rate (%) of crabgrass, Measured value): 65%

SMILES: Cn1nc(C(F)(F)F)c(CS(=O)(=O)C2=NOC(C)(C)C2)c1OC(F)F [Pyroxasulfone]
- inhibition at 50 g/ha (velvetleaf; Abutilon theophrasti, foliar, 3.5 to 4.0 leaf stage, 14th day after application, read-out: Growth inhibition rate (%) of velvetleaf, Measured value): 40%
- inhibition at 100 g/ha (velvetleaf; Abutilon theophrasti, foliar, 3.5 to 4.0 leaf stage, 14th day after application, 100 g/ha, read-out: Growth inhibition rate (%) of velvetleaf, Measured value): 50%

SMILES: CCS(=O)(=O)c1cccnc1S(=O)(=O)NC(=O)Nc1nc(OC)cc(OC)n1 [Rimsulfuron]
- inhibition at 10 g/ha (velvetleaf; Abutilon theophrasti, foliar, 3.0 to 4.0 leaf stage, 21st day after application, 10 g/ha, read-out: Growth inhibition rate (%) of velvetleaf, Measured value): 75%
- inhibition at 20 g/ha (velvetleaf; Abutilon theophrasti, foliar, 3.0 to 4.0 leaf stage, 21st day after application, 20 g/ha, read-out: Growth inhibition rate (%) of velvetleaf, Measured value): 95%
- inhibition at 7 g/ha (velvetleaf; Abutilon theophrasti, foliar, 3.2 to 4.3 leaf stage, 21st day after application, 7 g/ha, read-out: Growth inhibition rate (%) of velvetleaf, Measured value): 50%

SMILES: COc1nc(NC(=O)NS(=O)(=O)c2ccccc2C(F)(F)F)nc(C(F)(F)F)n1 [Tritosulfuron]
- Growth inhibition rate (%) of crabgrass, Measured value (crabgrass; 3.2 to 4.2 leaf stage, 21st day after application, 15 g/ha): 0%

Reference: patent US8466088B2, “Herbicidal compositions containing benzoylpyrazole compounds” (Ishihara Sangyo Kaisha, Ltd., priority 2007, dated 2013)
